Tests used:
RORγt [1] = biological target: T1, RORγt (Homo sapiens, UniProt P51449); assay: Jurkat reporter test (IL-17 ROR response element luciferase); format: cell-based; set-up: expressed in transfected cells; host or cells: Jurkat cells; conditions: test compound 3 μM, Jurkat cells; for inhibition at 3 µM: Jurkat, read-out: luminescence level inhibitory rate (%)
T1 sequence (P51449 1-497 isoform P51449-2): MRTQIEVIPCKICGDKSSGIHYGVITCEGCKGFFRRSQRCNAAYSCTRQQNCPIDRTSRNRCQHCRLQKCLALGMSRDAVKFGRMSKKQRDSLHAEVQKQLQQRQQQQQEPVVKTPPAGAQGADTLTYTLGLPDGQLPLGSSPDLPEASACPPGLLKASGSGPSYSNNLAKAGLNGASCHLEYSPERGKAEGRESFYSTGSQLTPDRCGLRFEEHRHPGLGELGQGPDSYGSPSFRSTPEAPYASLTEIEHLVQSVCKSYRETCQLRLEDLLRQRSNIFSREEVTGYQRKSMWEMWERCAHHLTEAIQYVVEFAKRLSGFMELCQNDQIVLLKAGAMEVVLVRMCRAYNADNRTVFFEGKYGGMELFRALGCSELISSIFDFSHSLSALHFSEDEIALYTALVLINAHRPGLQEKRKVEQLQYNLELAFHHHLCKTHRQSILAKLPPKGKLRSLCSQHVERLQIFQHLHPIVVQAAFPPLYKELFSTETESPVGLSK
Procedure: The Jurkat cells used for the reporter test were cultured in a culture medium (RPMI (Invitrogen), 10% FCS (AusGeneX), 100 U/mL penicillin, 100 μg/mL streptomycin). On the day of the test, 4×10^7 cells were recovered by a centrifugal operation (1000 rpm, 5 min.) and suspended in PBS (phosphate buffered saline) (Invitrogen). Thereafter, the cells were recovered again by a centrifugal operation, and suspended in 2 mL of R buffer (NEON transfection kit, Invitrogen). […] Gene transfer was performed by Electroporation apparatus (NEON, Invitrogen) under the conditions of pulse voltage 1350 V, interval 10 milliseconds, number of times 3. The cells after gene transfer were suspended in 40 mL of a reaction medium (RPMI, 10% Lipid reduced FCS (HyClone), 10 mM HEPES (pH 7.5), 100 U/mL penicillin, 100 μg/mL streptomycin, 5 μM lovastatin), and plated in a 96 well plate by 90 μL each. A test compound diluted with the reaction medium was added by 10 μL each, and the cells were cultured overnight in an incubator. Bright-Glo (Promega) was added by 100 μL each, and the mixture was stirred at room temperature for 10 min, and the luminescence level was measured by Envision (PerkinElmer).

RORγt [2] = biological target: T1, RORγt; assay: RORγt binding test (TR-FRET, fluorescent-labeled cholesterol); conditions: binding inhibitory rate of fluorescent-labeled cholesterol to RORγt at test compound 1 μM
Procedure: The binding activity of the test compound to RORγt was measured by a time resolved fluorescence resonance energy transfer method (TR-FRET) utilizing histidine-tagged RORγt, fluorescent-labeled cholesterol (BODIPY-cholesterol, AVIVA) and terbium-labeled anti-histidine tag antibody (Invitrogen). First, a test compound diluted with an assay buffer (20 mM Tris-HCl (pH 7.5), 100 mM NaCl, 1 mM DTT, 0.1% BSA) was added to a 384 well plate by 3 μL each. Then, RORγt diluted with an assay buffer to 240 nM was added by 3 μL each, after which fluorescent-labeled cholesterol diluted with the assay buffer to 12 μM was added by 3 μL each, and the mixture was stood at room temperature for 20 min. Thereafter, a terbium-labeled anti-histidine tag antibody diluted with the assay buffer to 8 nM was added by 3 μL each. The mixture was stood at room temperature for 20 min, and fluorescence intensity (excitation wavelength 320 nm, fluorescence wavelength 520 nm, delay time 100 microseconds) was measured by Envision (PerkinElmer).

RORγt [3] = biological target: T1, RORγt; assay: Cofactor recruitment test (Alpha Screen, biotinylated SRC-1 peptide); format: biochemical; conditions: test compound 1 μM; for inhibition at 1 µM: read-out: signal value inhibitory rate (%)
Procedure: Cofactor Recruitment Test
Cofactor recruitment test was performed by Alpha Screen (Histidine Detection Kit, PerkinElmer) method. First, a test compound diluted with an assay buffer (50 mM Tris-HCl (pH 7.5), 50 mM KCl, 1 mM DTT, 0.1% BSA) was added to a 384 well plate by 5 μL each. […] The mixture was stood in a dark place for 1 hr, and the signal value was measured by Envision (PerkinElmer).

SMILES | inhibition at 3 µM (RORγt [1]) [%] | inhibition at 1 µM (RORγt [2]) [%] | inhibition at 1 µM (RORγt [3]) [%] | luminescence level inhibitory rate (%) (RORγt [1]; 3 µM) | binding inhibitory rate (%) (RORγt [2]; 1 µM) | signal value inhibitory rate (%) (RORγt [3]; 1 µM)
CCn1c(=O)n(COC)c(=O)c2cc(NC(=O)CC(C)CC(=O)Nc3ccc(C#N)c(Cl)c3)ccc21 (centres unmarked) [Example 19, N-(3-chloro-4-cyanophenyl)-N′-(1-ethyl-3-(methoxymethyl)-2,4-dioxo-1,2,3,4-tetrahydroquinazolin-6-yl)-3-methylpentanediamide] | 115 | 99.6 | 104 |  |  | 
CCn1c(=O)n(C2CC2)c(=O)c2cc(NC(=O)CC(C)CC(=O)Nc3ccc(C#N)c(Cl)c3)ccc21 (centres unmarked) [Example 60, N-(3-chloro-4-cyanophenyl)-N′-(3-cyclopropyl-1-ethyl-2,4-dioxo-1,2,3,4-tetrahydroquinazolin-6-yl)-3-methylpentanediamide] | 122 | 102 | 103 |  |  | 
CCn1c(=O)n(CCOC)c(=O)c2cc(NC(=O)CC(C)CC(=O)Nc3ccc(C#N)c(Cl)c3)ccc21 (centres unmarked) [Example 20, N-(3-chloro-4-cyanophenyl)-N′-(1-ethyl-3-(2-methoxyethyl)-2,4-dioxo-1,2,3,4-tetrahydroquinazolin-6-yl)-3-methylpentanediamide] | 116 | 101 | 105 |  |  | 
CC(CNC(=O)c1cc2c(=O)n(CC3CC3)c(=O)n(CC3CC3)c2cn1)CC(=O)Nc1ccc(C#N)c(Cl)c1 (centres unmarked) [Example 112, N-(4-((3-chloro-4-cyanophenyl)amino)-2-methyl-4-oxobutyl)-1,3-bis(cyclopropylmethyl)-2,4-dioxo-1,2,3,4-tetrahydropyrido[3,4-d]pyrimidine-6-carboxamide] | 97.7 | 96.6 | 100 |  |  | 
CCn1c(=O)n(CC2CC2)c(=O)c2cc(NC(=O)[C@@H](O)CCC(=O)Nc3ccc(C#N)c(Cl)c3)ccc21 [Example 141, (2S)—N^5-(3-chloro-4-cyanophenyl)-N^1-(3-(cyclopropylmethyl)-1-ethyl-2,4-dioxo-1,2,3,4-tetrahydroquinazolin-6-yl)-2-hydroxypentanediamide] | 103 | 102 | 102 |  |  | 
CC(O)(CC(=O)Nc1ccc(C#N)c(Cl)c1)CC(=O)Nc1ccc2c(c1)c(=O)n(CC1CC1)c(=O)n2CC1CC1 (centres unmarked) [Example 102, N-(1,3-bis(cyclopropylmethyl)-2,4-dioxo-1,2,3,4-tetrahydroquinazolin-6-yl)-N′-(3-chloro-4-cyanophenyl)-3-hydroxy-3-methylpentanediamide] | 104 | 103 | 104 |  |  | 
CC(CC(=O)Nc1ccc(C#N)c(Cl)c1)CC(=O)Nc1ccc2c(c1)C(=O)N(CC1CC1)C(=O)C21CCCC1 (centres unmarked) [Example 145, N-(3-chloro-4-cyanophenyl)-N′-(2′-(cyclopropylmethyl)-1′,3′-dioxo-2′,3′-dihydro-1′H-spiro[cyclopentane-1,4′-isoquinoline]-7′-yl)-3-methylpentanediamide] | 103 |  | 103 |  |  | 
CCn1c(=O)n(C[Si](C)(C)C)c(=O)c2cc(NC(=O)CC(C)CC(=O)Nc3ccc(C#N)c(Cl)c3)ccc21 (centres unmarked) [Example 32, N-(3-chloro-4-cyanophenyl)-N′-(1-ethyl-2,4-dioxo-3-((trimethylsilyl)methyl)-1,2,3,4-tetrahydroquinazolin-6-yl)-3-methylpentanediamide] | 114 | 98.5 | 103 |  |  | 
CC(C)n1c(=O)n(CC2CC2)c(=O)c2cc(NC(=O)CC(C)(O)CC(=O)Nc3ccc(C#N)c(Cl)c3)ccc21 (centres unmarked) [Example 142, N-(3-chloro-4-cyanophenyl)-N′-(3-(cyclopropylmethyl)-1-isopropyl-2,4-dioxo-1,2,3,4-tetrahydroquinazolin-6-yl)-3-hydroxy-3-methylpentanediamide] | 103 |  | 103 |  |  | 
CC(CC(=O)Nc1ccc(C#N)c(Cl)c1)CC(=O)Nc1ccc2c(c1)c(=O)n(CC1CC1)c(=O)n2C(C)C (centres unmarked) [Example 144, N-(3-chloro-4-cyanophenyl)-N′-(3-(cyclopropylmethyl)-1-isopropyl-2,4-dioxo-1,2,3,4-tetrahydroquinazolin-6-yl)-3-methylpentanediamide] | 103 |  | 102 |  |  | 
CCn1c(=O)c2cc(NC(=O)CC(C)CC(=O)Nc3ccc(C#N)c(Cl)c3)ccc2n(C[Si](C)(C)C)c1=O (centres unmarked) [Example 126, N-(3-chloro-4-cyanophenyl)-N′-(3-ethyl-2,4-dioxo-1-((trimethylsilyl)methyl)-1,2,3,4-tetrahydroquinazolin-6-yl)-3-methylpentanediamide] | 102 | 103 | 100 |  |  | 
CCn1c(=O)c2cc(C(=O)NCC(CC(=O)Nc3ccc(C#N)c(Cl)c3)C(C)C)ccc2n(CC)c1=O (centres unmarked) [Example 35, N-(4-((3-chloro-4-cyanophenyl)amino)-2-isopropyl-4-oxobutyl)-1,3-diethyl-2,4-dioxo-1,2,3,4-tetrahydroquinazoline-6-carboxamide] |  |  |  | 122.0 | 102.0 | 105.0
CCn1c(=O)n(CSC)c(=O)c2cc(NC(=O)CC(C)CC(=O)Nc3ccc(C#N)c(Cl)c3)ccc21 (centres unmarked) [Example 65, N-(3-chloro-4-cyanophenyl)-N′-(1-ethyl-3-((methylsulfanyl)methyl)-2,4-dioxo-1,2,3,4-tetrahydroquinazolin-6-yl)-3-methylpentanediamide] | 102 | 100 | 102 |  |  | 
CCn1c(=O)n(CC2CC2)c(=O)c2cc(NC(=O)CC[C@@H](O)C(=O)Nc3ccc(C#N)c(Cl)c3)ccc21 [Example 138, (2R)—N^1-(3-chloro-4-cyanophenyl)-N^5-(3-(cyclopropylmethyl)-1-ethyl-2,4-dioxo-1,2,3,4-tetrahydroquinazolin-6-yl)-2-hydroxypentanediamide] | 104 | 104 | 100 |  |  | 
CC(CC(=O)Nc1ccc(C#N)c(Cl)c1)CC(=O)Nc1cc2c(=O)n(CC3CC3)c(=O)n(CC3CC3)c2cn1 (centres unmarked) [Example 113, N-(1,3-bis(cyclopropylmethyl)-2,4-dioxo-1,2,3,4-tetrahydropyrido[3,4-d]pyrimidin-6-yl)-N′-(3-chloro-4-cyanophenyl)-3-methylpentanediamide] | 96.5 | 103 | 102 |  |  | 
CCN1Cc2cc(NC(=O)CC(C)CC(=O)Nc3ccc(C#N)c(Cl)c3)ccc2N(CC)C1=O (centres unmarked) [Example 16, N-(3-chloro-4-cyanophenyl)-N′-(1,3-diethyl-2-oxo-1,2,3,4-tetrahydroquinazolin-6-yl)-3-methylpentanediamide] | 117 | 92.8 | 104 |  |  | 
CCn1c(=O)c2cc(NC(=O)CC(C)CC(=O)Nc3ccc(C#N)c(Cl)c3)ncc2n(CC)c1=O (centres unmarked) [Example 124, N-(3-chloro-4-cyanophenyl)-N′-(1,3-diethyl-2,4-dioxo-1,2,3,4-tetrahydropyrido[3,4-d]pyrimidin-6-yl)-3-methylpentanediamide] | 100 |  | 101 |  |  | 
